Reference: patent US7265119B2, “Tartrate salts of 5,8,14-triazatetracyclo[10.3.1.02,11.04.9]-hexadeca-2(11),3,5,7,9-pentaene and pharmaceutical compositions thereof” (Pfizer Inc, priority 2001, dated 2007)
Where a name gives a salt, the structure may show the parent alone.

Assays:
Format in all cases: physicochemical
[1] = native pH in aqueous solution
[2] = hygroscopicity
Procedure: Further, the Form B forms orthorhombic crystals belonging to the P2(1)2(1)2(1) space group. Form B is further characterized in having an onset of melting at about 215° C. as measured by differential scanning calorimetry at a heating rate of 5 degrees per minute. […] In addition, Form B has a hygroscopicity of approximately 0.2% at 90% relative humidity.

[3] = stability of the hydrate under vacuum at moderate temperature; conditions: for stability (in words): ambient conditions / low humidity
Text: The L-tartrate salt exists as three possible forms: two anhydrous forms and one hydrate form.

[4] = aqueous solubility; conditions: water, pH 3.3, water
[5] = polymorph stability / interconversion on exposure to relative humidity; conditions: for stability at RH greater than 60%: experiments at 75% and 87% relative humidity
Text: Upon filtering off the Form C which precipitates out as a white salt, the Form C salt may be air dried.
Experiments at 23% and 43% RH have verified this phenomena.

[6] = solid-state stability and excipient compatibility

c1cnc2cc3c(cc2n1)C1CNCC3C1 [Form B, L-Tartrate Salt of 5,8,14-Triazatetracyclo[10.3.1.0^2,11.0^4,9]-hexadeca-2(11),3,5,7,9-pentaene (Anhydrous Polymorph, Form B)]
native pH in aqueous solution [1]: about 3.3
hygroscopicity ([2]; at 90% relative humidity): approximately 0.2%
stability (in words) [3]: most stable of the polymorphs at low humidity
solubility [4]: ~156 mg/mL
stability at RH greater than 60% [5]: relatively stable over a several month period
time for conversion of Form B to Form C ([5]; exposed to 100% RH): ≤ 2 days

O=C(O)C(O)C(O)C(=O)O.c1cnc2cc3c(cc2n1)C1CNCC3C1 [Form C, L-Tartrate Saft Form C of 5,8,14-Triazatetracyclo[10.3.1.0^2,11.0^4,9]-hexadeca-2(11),3,5,7,9-pentaene (Form C)]
time the hydrate maintains its one equivalent of water under vacuum ([3]; 45° C. vacuum oven): ≥ 24 h
stability (in words) [3]: relatively stable under ambient conditions
time after which the hydrate loses water and converts to anhydrous Form B ([3]; under vacuum at moderate temperatures): ≥ 48 h
stability at RH greater than 60% [5]: relatively stable over a several month period
behaviour on exposure to less than 50% RH ([5]; less than 50% RH, experiments at 23% and 43% RH): more slowly dehydrate

c1cnc2cc3c(cc2n1)C1CNCC3C1 [L-tartrate salt, L-tartrate salt of 5,8,14-triazatetracyclo[10.3.1.0^2,11.0^4,9]-hexadeca-2(11),3,5,7,9-pentaene]
solid-state stability [6]: high solid-state stability
inertness towards excipients ([6]; common excipients): relative inertness towards common excipients
hygroscopicity (in words) [2]: very slightly hygroscopic

O=C(O)C(O)C(O)C(=O)O.c1cnc2cc3c(cc2n1)C1CNCC3C1 [Form A′, D-tartrate salt of 5,8,14-triazatetracyclo[10.3.1.0^2,11.0^4,9]-hexadeca-2(11),3,5,7,9-pentaene]
hygroscopicity compared with the corresponding Form A, B or C of the L-tartrate salt [2]: the same
